# According to patent US20240261237A1, “REDUCING SIDE EFFECTS OF NMDA RECEPTOR ANTAGONISTS” (Seelos Therapeutics, Inc., priority 2021, published 2024):
# Columns and labels:
# [1] = tested on: adults with major depressive disorder (MDD) at imminent risk of suicide; experiment: Example 4 Phase 2 study: C-SSRS; settings: 24 hours post-administration, baseline yes
# [2] = tested on: adults with major depressive disorder (MDD) at imminent risk of suicide; experiment: Example 4 Phase 2 study: MADRS item 10 (suicidality); type: in vivo, human; settings: for MADRS item 10 score: 24 hours post-administration
# Excerpt: (§1) MADRS is a diagnostic questionnaire that can be used to measure the severity of a depressive episode in a subject. In some embodiments, the MADRS can be used to measure the severity of depressive symptoms in a subject, for example, a subject suffering from MDD, TRD, bipolar depression, and other psychiatric disorders described herein with a depression component. In some embodiments, the MADRS can be used to measure TRD. In some embodiments, the MADRS can be used to measure other psychiatric disorders, as described herein. […]
# [3] = tested on: adults with major depressive disorder (MDD) at imminent risk of suicide; experiment: Example 4 Phase 2 study: MADRS Total; type: in vivo, human; settings: both subjects; 24 hours
# Excerpt: The Montgomery-Åsberg Depression Rating Scale (MADRS) is used to assess the severity of depression among subjects who have a diagnosis of depression. The MADRS includes 10 items and uses a 0 to 6 severity scale, scored following the interview. Higher scores indicate increasing depressive symptoms. Ratings can be added to form an overall score (range 0 to 60); no weights are used. Cut-off points include: 0 to 6—symptom absent, 7 to 19—mild depression, 20 to 34—moderate, 35 to 60—severe depression.
# as §1
# [4] = tested on: adults with major depressive disorder (MDD) at imminent risk of suicide; experiment: Example 4 Phase 2 study: STS-CMCM Risk of Suicide at Within the Next 7 Days; type: in vivo, human
# Excerpt: (§2) The CMCM version of the S-STS (S-STS CMCM) has four parts, and can also provide a comprehensive description of suicidal ideation and behavior. See, e.g., Sheehan et al., Innov. Clin. Neurosci. Vol. 11, No. 9-10, pp. 93-140 (2014) The S-STS CMCM (version 01/01/19) is a clinician-rated outcome measure which assesses SI/B on multiple patient and clinician-rated items. It includes 13 suicidality items that are rated on a Likert-type scale ranging from “not at all” (0) to “extremely” (4), yielding a total score ranging from 0 to 52. The final 6 items are used only when the patient misses a visit and is unable to complete the scale; if that missed visit is due to attempted or completed suicide, the possible maximum score is […]. The CMCM also yields 5 different single-item global assessments: 1) subject-rated likelihood of a suicide attempt; 2) subject-rated treatment needed; 3) clinician global severity of suicidal impulses, thoughts, and behaviors; 4) clinician judgment of suicide risk at this time and level of management needed for suicidality; and 5) clinician judgment of subject's likelihood of making a suicide attempt or of dying by suicide in the next 7 days.
# (§3) The secondary endpoints are the change from baseline at 24 hours, as well as at Day 16, in the following: • (1) PGIS-SI/B (Day 16 only) • (2) S-STS total score (Day 16 only) • (3) CGI of Change in SI/B (CGIC-SI/B) • (4) PGI of Change in SI/B (PGIC-SI/B) • (5) S-STS Clinician-Rated Global Severity of Suicidal Impulses, Thoughts, and Behaviors • (6) S-STS Clinician judgment of subject's risk of a suicide attempt or death by suicide at this time • (7) S-STS Clinician judgment of subject's likelihood (risk) of making a suicide attempt or of dying by suicide in the next 7 days • (8) S-STS Subject-rated global severity of suicidal impulses, thoughts, and behavior • (9) S-STS Subject-rated treatment needed score • (10) MADRS item 10 response rate (response≤3 units) • (11) MADRS response (total score ≥50% reduction from baseline) • (12) MADRS remission (total score ≤12)
# [5] = tested on: adults with major depressive disorder (MDD) at imminent risk of suicide; experiment: Example 4 Phase 2 study: adverse events; settings: in vivo
# [6] = in vivo; cited from earlier work
# [7] = tested on: adults with major depressive disorder (MDD) at imminent risk of suicide; experiment: Example 4 Phase 2 study: STS-CMCM total score; type: in vivo, human; settings: for STS mean score: baseline 21.9; for STS-CMCM score (range 0-52 units): 24 hours post-administration
# Excerpt: The Sheehan Suicidality Tracking Scale (Sheehan-STS, S-STS) is a prospective rating scale that tracks both treatment-emergent suicidal ideation and behaviors. The Sheehan-STS is a scale with 14 core items and nine additional questions contingent on the core responses that can be administered either by a clinician or patient through self-report. Each item in the Sheehan-STS is scored on a 5-point Likert scale (0=not at all, 1=a little, 2-moderately, 3=very, and 4-extremely).
# as §2, §3
# [8] = tested on: adults with major depressive disorder (MDD) at imminent risk of suicide; experiment: Example 4 Phase 2 study: STS-CMCM risk of suicide at this time; type: in vivo, human
# Excerpt: as §2, §3
# [9] = tested on: subjects; settings: in vivo; cited from earlier work
# [10] = tested on: adults with major depressive disorder (MDD) at imminent risk of suicide; experiment: Example 4 Phase 2 study: MOAA/S (sedation)
# [11] = tested on: adults with major depressive disorder (MDD) at imminent risk of suicide; experiment: Example 4 Phase 2 study: CADSS (dissociation); settings: for CADSS change from baseline: at 40 minutes
smiles,measurement,setting,value
"CNC1(c2ccccc2Cl)CCCCC1=O (racemic) [racemic ketamine, (R)-2-(2-chlorophenyl)-2-(methylamino)cyclohexanone and (S)-2-(2-chlorophenyl)-2-(methylamino)cyclohexanone]",C-SSRS score for suicidal ideation (yes or no),[1]; Subject 1,no
same,C-SSRS score for suicidal ideation (yes or no),[1]; Subject 2,no
same,MADRS item 10 score,"[2]; Subject 1, baseline 5 units",0 units
same,MADRS item 10 score,"[2]; second subject (not named), baseline 5 units pre-dose",0 units
same,sustained response (MADRS Item 10) after the final administration,[2]; with SOC,15 days
same,reduction of MADRS Total,[3],> 50%
same,STS-CMCM Risk of Suicide at Within the Next 7 Days score,"[4]; Subject 1, 24 hours post-administration, from 5 units",2 units
same,STS-CMCM Risk of Suicide at Within the Next 7 Days score,"[4]; Subject 2, 24 hours post-administration, baseline 7 units",1 unit
same,STS-CMCM Risk of Suicide at Within the Next 7 Days score,[4]; the scores on Day 4,1 unit
same,STS-CMCM Risk of Suicide at Within the Next 7 Days score,[4]; the scores on Day 8,0 units
same,serious adverse events,[5],no serious adverse events were observed
same,antidepressant properties,[6],exhibit antidepressant properties
same,patients with >14 points within-patient change from baseline in STS,[7]; Day 1,94%
same,patients with 4 points within-patient change in STS,"[7]; Day 1, 1 patient",6%
same,STS mean score,[7]; Day 1,1.7
same,STS mean score,[7]; Day 16,0.0
same,STS mean score,[7]; Day 29,0.0
same,STS-CMCM score (range 0-52 units),"[7]; Subject 1, from 18 units",zero
same,STS-CMCM score (range 0-52 units),"[7]; Subject 2, from 22 units",3 units
same,STS-CMCM score (range 0-9; risk of suicide at this time),"[8]; Subject 1, 24 hours post-administration, baseline 7 units",3 units
same,STS-CMCM score (range 0-9; risk of suicide at this time),"[8]; Subject 1, Day 9",2 units
same,STS-CMCM score (range 0-9; risk of suicide at this time),"[8]; Subject 2, 24 hours post-administration, from 7 units",3 units
same,STS-CMCM score (range 0-9; risk of suicide at this time),"[8]; Subject 2, Day 9",zero
same,STS-CMCM score (range 0-9; risk of suicide at this time),"[8]; both subjects, Day 8",2 units
same,movement during the anesthetic recovery phase / locomotor activity,[9],increased movement during the anesthetic recovery phase
same,MOAA/S score of the 1 subject with a score <5 units on subsequent dosing days,[10]; 6-hour time-point on Day 4,4 units
same,subjects with MOAA/S score of 5 units at all time-points,"[10]; Day 1, 7 subjects",5 of 7
same,"MOAA/S score, all subjects","[10]; Day 1, no one below",≥ 4 units
same,subjects with no dissociation (CADSS),"[11]; Days 1 and 4, 7 subjects",four of the 7
same,subjects reporting dissociation,"[11]; after Day 4 (on Day 11 at 40 minutes), 7 subjects",1
same,CADSS change from baseline,[11]; Day 4 (after second dose),2.3
same,CADSS change from baseline,[11]; Day 8 (after third dose),0.4
same,CADSS change from baseline,[11]; after first dose,3.8
same,sedation or dissociation,[11]; entire patient cohort to the Day 29/30 endpoint,no clinically meaningful sedation or dissociation
NC1(c2ccccc2Cl)CCCC(O)C1=O (stereo not shown) [6-hydroxynorketamine],antidepressant properties,[6],exhibit antidepressant properties
same,movement during the anesthetic recovery phase / locomotor activity,[9],no anesthetic or locomotor activity
NC1(c2ccccc2Cl)CCCCC1=O (stereo not shown) [norketamine],movement during the anesthetic recovery phase / locomotor activity,[9],increased movement during the anesthetic recovery phase
